Data set [1] relates to SiHa. As to the kind of experiment: Cytotoxicity against human SiHa cells in glucose-containing medium after 72 hrs by MTT assay. Type of data set: functional, cell-based.
Data set [2] has as its system SiHa. As to the kind of experiment: Cytotoxicity against human SiHa cells in lactate-containing medium after 72 hrs by MTT assay. Format: functional, cell-based.
In data set [3] the target is T1, Monocarboxylate transporter 4 (Homo sapiens, UniProt O15427).
T1 sequence (O15427 whole entry): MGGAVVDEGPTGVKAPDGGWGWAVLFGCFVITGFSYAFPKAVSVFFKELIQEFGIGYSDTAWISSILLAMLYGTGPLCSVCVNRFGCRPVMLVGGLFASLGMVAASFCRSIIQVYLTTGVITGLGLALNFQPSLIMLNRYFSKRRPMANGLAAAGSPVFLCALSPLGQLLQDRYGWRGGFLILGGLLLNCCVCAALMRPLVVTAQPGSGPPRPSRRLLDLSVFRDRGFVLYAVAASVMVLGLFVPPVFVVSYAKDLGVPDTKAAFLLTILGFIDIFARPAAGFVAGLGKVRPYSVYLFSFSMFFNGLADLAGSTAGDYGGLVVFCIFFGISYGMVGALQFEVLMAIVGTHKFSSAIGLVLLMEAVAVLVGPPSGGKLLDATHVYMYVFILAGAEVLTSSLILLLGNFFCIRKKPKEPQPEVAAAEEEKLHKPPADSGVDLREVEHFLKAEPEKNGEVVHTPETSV
As to the kind of experiment: Inhibition of MCT4-mediated [14C]-lactate uptake in human SiHa cells in lactate-containing medium assessed as remaining lactate concentration in culture medium after 24 hrs by liquid scintillation counting. Type of data set: cell-based.

The nature of data set [4]: Chemical stability of the compound in simulated gastric fluid assessed as compound remaining after 1 hr. Format: physicochemical. The following applies: read-out: Stability.
Data set [5] is described as follows: Aqueous solubility of the compound in PBS buffer at pH 7.4. Format: physicochemical.
Data set [6] relates to SiHa. In words: Cytotoxicity against human SiHa cells in glucose-containing medium at 10 uM under hypoxia condition after 72 hrs by MTT assay. Format: functional, cell-based.
The test system of data set [7] is SiHa. As to the kind of experiment: Induction of apoptosis in human SiHa cells in lactate-containing medium assessed as caspase-3 cleavage at 10 uM after 48 hrs by Western blot analysis. Format: functional, cell-based.
The nature of data set [8]: Metabolic stability in human plasma assessed as compound remaining after 1 hr. Format: ADME, cell-free. To be noted: read-out: Stability.
Data set [9] relates to SiHa. As to the kind of experiment: Cytotoxicity against human SiHa cells in glucose-containing medium at 10 uM under normoxia condition after 72 hrs by MTT assay. Format: functional, cell-based.
Data set [10] can be described thus: Cmax in mouse at 3 mg/kg, ip. Type of data set: ADME, organism-based. Also noted: dose 3 mg/kg, route intraperitoneal. To be noted: in vivo.
Data set [11] in a line: Metabolic stability in mouse plasma assessed as compound remaining after 1 hr. Type of data set: ADME, cell-free. The following applies: read-out: Stability.
Data set [12] in a line: Half life in human hepatocytes. Type of data set: ADME, cell-based, Hepatocyte.
A short description of data set [13]: Tmax in mouse at 3 mg/kg, ip. Type of data set: ADME, organism-based. Also noted: dose 3 mg/kg, route intraperitoneal. To be noted: in vivo.
The subject of data set [14] is SiHa. As to the kind of experiment: Cytotoxicity against human SiHa cells in glucose-containing medium after 72 hrs by MTT assay absence of pyruvate. Format: functional, cell-based.
Data set [15] in a line: Half life in human liver microsomes. Type of data set: ADME, Microsome.
Data set [16] deals with Mus musculus. In words: Toxicity in C57Bl6/J mouse assessed as mortality at 3 mg/kg, ip. The following applies: in vivo. Type of data set: organism-based. Also noted: dose 3 mg/kg, route intraperitoneal.
Data set [17] is described as follows: Half life in mouse at 3 mg/kg, ip. Type of data set: ADME, organism-based. The following applies: in vivo. Also noted: dose 3 mg/kg, route intraperitoneal.
For data set [18], the system named is Mus musculus. As to the kind of experiment: Toxicity in C57Bl6/J mouse assessed as induction of anticoagulant at 3 mg/kg, ip by prothrombin time test. Type of data set: organism-based. Also noted: dose 3 mg/kg, route intraperitoneal. To be noted: in vivo.
Data set [19] in a line: AUC (infinity) in mouse at 3 mg/kg, ip. Type of data set: ADME, organism-based. Also noted: time infinity, dose 3 mg/kg, route intraperitoneal. To be noted: plasma.
Data set [20] relates to SiHa. In words: Cytotoxicity against human SiHa cells in glucose-containing medium after 72 hrs by MTT assay presence of pyruvate. Format: functional, cell-based.
For data set [21], the target named is T1, Monocarboxylate transporter 4. The following applies: siha.
Description: Inhibition of MCT4-mediated [14C]-lactate uptake in human SiHa cells in lactate-containing medium assessed as remaining lactate concentration in culture medium after 12 mins by liquid scintillation counting
Data set [22] deals with T2, Monocarboxylate transporter 4 (Homo sapiens) (UniProt O15427).
T2 sequence (whole entry): T1 sequence (O15427 whole entry)
In words: Ratio of alpha-cyano-4-hydroxycinnamate IC50 to compound IC50 for MCT4-mediated [14C]-lactate uptake in human SiHa cells in lactate-containing medium assessed as remaining lactate concentration in culture medium after 24 hrs by liquid scintillation counting. Format: cell-based.

Data set [23] in a line: Chemical stability of the compound in simulated intestinal fluid assessed as compound remaining after 4 hrs. Type of data set: physicochemical. The following applies: read-out: Stability.
Data set [24] in a line: Half life in mouse liver microsomes. Type of data set: ADME, Microsome.
The test system of data set [25] is Mus musculus. As to the kind of experiment: Toxicity in C57Bl6/J mouse assessed as mortality at 1.5 mg/kg, ip. The following applies: in vivo. Format: organism-based. Also noted: dose 1.5 mg/kg, route intraperitoneal.
Data set [26] has as its system Mus musculus. In words: Toxicity in C57Bl6/J mouse assessed as induction of hemorrhage at 1.5 mg/kg, ip. Type of data set: organism-based. Also noted: dose 1.5 mg/kg, route intraperitoneal. The following applies: in vivo.

Converted amounts (≈) assume the structure as drawn. The source made the active and inactive calls. The rule behind the calls is not given here.

`CCn1c(=O)c(C(=O)O)cc2ccc(OCc3ccccc3)cc21`: the outcome in the data set on SiHa [1] was inactive. Moreover, the EC50 in the data set on SiHa [2] is more than 30 µM. In addition, the 50% inhibitory concentration (IC50) in [3] was more than 30 µM.
Consider `O=C(O)c1cc2ccc(OCc3cc(C(F)(F)F)cc(C(F)(F)F)c3)cc2oc1=O`, for which the result in the data set with SiHa [2] was inactive.
Still for that read-out and setting: next, `O=C(O)c1cc2ccc(OCc3cccc(F)c3)cc2oc1=O`: “inactive”.
Turning to `COc1ccc2cc(C(=O)O)c(=O)oc2c1`, the outcome in the data set with SiHa [1] was inactive. Moreover, the EC50 with SiHa [2] amounted to 9.8 µM. Further, in data set [3], the half-inhibitory concentration (IC50) was 2.3 µM.
For the molecule `O=C(O)c1cc2ccc(OCn3nnc4ccccc43)cc2oc1=O`, the result in the data set with SiHa [2] was inactive.
As to `O=C(O)c1cc2ccc(OCc3ccc(F)cc3)cc2oc1=O`, the result in the data set on SiHa [1] was inactive. In the data set on SiHa [2], this molecule came in with an EC50 of 3.9 µM. For the same molecule, in data set [3], the 50% inhibitory concentration (IC50) came to 1.25 µM.
In the case of `CN(Cc1ccccc1)c1ccc2cc(C(=O)O)c(=O)oc2c1`, the figures for the remaining at 1 h in [4], in [8] and in [11] were 105%, 44% and 103%, respectively. This molecule also displayed a solubility in [5] of 58 µM (≈ 17.9 µg/mL). For the same molecule, the result in the data set with SiHa [6], in the data set with SiHa [9], in the data set with SiHa [1], in the data set with SiHa [14] and in the data set with SiHa [20] was inactive. Also, the outcome in the data set with SiHa [7] was Active. The Cmax in [10] came out at 1250 ng/mL. Moreover, the half-life in data set [12] was more than 2 h; in data set [15] it was more than 1 h; in data set [17] it was 4.5 h; in [24], more than 1 h. The time to peak (Tmax) in data set [13] is 0.167 h. Also, the Activity result in the data set with Mus musculus [16] and in the data set on Mus musculus [18] was “Non-toxic” each time. This molecule had an AUC(0-inf) in [19] of 935 ng·h/mL. In the data set with SiHa [2], this molecule displayed an EC50 of 0.22 µM. Also, the IC50 was determined as 0.01 µM in data set [21] and 0.059 µM in [3]. Also, the Ratio IC50 in [22] stood at 3. In addition, the remaining at 4 h in data set [23] was 91%.
On to `O=C(O)c1cc2ccc(OC3Cc4ccccc4C3)cc2oc1=O`, for which the outcome with SiHa [2] was inactive.
On to `COc1ccc2c(C)c(C(=O)O)c(=O)oc2c1`, for which the outcome in the data set on SiHa [1] was inactive. Moreover, the concentration giving a half-maximal response (EC50) in the data set on SiHa [2] was more than 30 µM. For the same molecule, in data set [3], the half-inhibitory concentration (IC50) was more than 30 µM.
For the molecule `Cn1c(=O)c(C(=O)O)cc2ccc(OCc3ccccc3)cc21`, the outcome with SiHa [1] was inactive. The EC50 in the data set with SiHa [2] is more than 30 µM. In addition, the half-maximal inhibitory concentration (IC50) in data set [3] is more than 30 µM.
In the case of `Cc1c(C(=O)O)c(=O)oc2cc(OCc3ccccc3)ccc12`, the result in the data set on SiHa [1] was inactive. Also, the 50% effective concentration (EC50) in the data set on SiHa [2] was more than 30 µM. The IC50 in data set [3] is more than 30 µM.
In the case of `O=C(O)c1cc2ccc(N3CCCC3)cc2oc1=O`, the result in the data set on SiHa [1] was inactive. Besides, the 50% effective concentration (EC50) with SiHa [2] worked out at 14.3 µM. Moreover, the half-inhibitory concentration (IC50) in data set [3] is more than 30 µM.
Consider `O=C(O)c1cc2ccc(OCc3ccccc3)cc2oc1=O`, for which, in the data set with SiHa [1], the outcome was inactive. This molecule also returned an EC50 in the data set with SiHa [2] of 9.1 µM. For the same molecule, the half-inhibitory concentration (IC50) in data set [3] stood at 1.9 µM.
In the same order, the values of `O=C(O)c1cc2ccc(OCCc3ccccc3)cc2oc1=O` are “inactive”, 5.6 µM and 2.4 µM.
In the same order, the values of `O=C(O)c1cc2ccc(OCc3ccccc3)cc2[nH]c1=O` are “inactive”, more than 30 µM and more than 30 µM.
As for `CC(C)=CCC/C(C)=C/COc1ccc2cc(C(=O)O)c(=O)oc2c1`, the outcome with SiHa [2] was inactive.
On to `CC(=O)CC(c1ccccc1)c1c(O)c2ccccc2oc1=O` (stereo unspecified) [WARFARIN], for which the Activity entry in the data set with Mus musculus [25] and with Mus musculus [26] was “Toxic” in each case.
In the case of `O=C(O)c1cc2ccc(N3CCOCC3)cc2oc1=O`, in the data set on SiHa [1], the outcome was inactive. The molecule also yielded an EC50 in the data set on SiHa [2] of 17.5 µM. The concentration for half-maximal inhibition (IC50) in data set [3] was 7.9 µM.
With `CN(C)c1ccc2cc(C(=O)O)c(=O)oc2c1`, in the data set on SiHa [1], the result was inactive. Besides, in the data set with SiHa [2], the EC50 turned out to be 2.9 µM. Also, the IC50 in data set [3] was 1.4 µM.
In the case of `O=C(O)c1cc2cc3c4c(c2oc1=O)CCCN4CCC3`, in the data set with SiHa [1], the result was inactive. The molecule further returned a concentration for a half-maximal effect (EC50) in the data set on SiHa [2] of 1.2 µM. Besides, the Ratio IC50 in data set [22] came out at 50. Besides, in [3], the concentration for half-maximal inhibition (IC50) came to 0.73 µM.
As for `Cc1c(C(=O)O)c(=O)oc2cc(O)ccc12`, in the data set on SiHa [1], the result was inactive. The molecule further returned an EC50 in the data set on SiHa [2] of more than 30 µM. Further, the IC50 in [3] is more than 30 µM.
As to `N#C/C(=C\c1ccc(O)cc1)C(=O)O` [alpha-CYANO-4-HYDROXYCINNAMIC ACID], in the data set on SiHa [1], the outcome was inactive. In the data set with SiHa [2], this molecule had a half-maximal effective concentration (EC50) of 10.7 µM. Further, the figures for the IC50 in data set [21] and in data set [3] were 10.7 µM and 43.5 µM, respectively.
For the molecule `O=C(O)c1cc2ccc(OCc3ccccc3)cc2n(Cc2ccccc2)c1=O`, in the data set with SiHa [1], the outcome was inactive. In the data set on SiHa [2], the EC50 was more than 30 µM. Further, in data set [3], the IC50 was more than 30 µM.

These data come from ChEMBL document CHEMBL2440061, “Synthesis and pharmacological evaluation of carboxycoumarins as a new antitumor treatment targeting lactate transport in cancer cells” (Bioorg Med Chem, 2013).
